Values after ≈ are worked out from the molar mass of the structure shown.
What was measured:
[1] = interconversion of the two diastereomers; format: physicochemical; settings: normal temperatures
[2] = system: Aspergillus fumigatus (MY4839); experiment: broth microdilution assay (MIC/MEC); format: cell-based; settings: 24 hours
Protocol: (§1) In the microbroth dilution assay, microorganisms were selected by streaking a yeast culture on Sabouraud dextrose agar (SDA) and incubating for 24-48 hours at 35°-37° C. Three to five characteristic colonies were selected and transferred to a fresh plate and incubated under similar conditions. From the regrowth, 3 to 5 colonies were selected and suspended in 10 milliliters of YM broth (Difco) and incubated for 4 hours at 35°-37° C. shaking at 225 rpm. The 4 hour broth cultures were adjusted optically to 86% transmission resulting in a concentration of 1-5×10^6 cfu/ml which was further diluted 1:100 in YNBD (yeast nitrogen base with 1% dextrose) to obtain a concentration of 1-5×10^4 cfu/ml for use as inocula.
(§2) The test compound was dissolved at […] in 10% DMSO and diluted 2× into the first well to achieve a concentration of 256 μg/ml at 5% DMSO in the first well. Compounds are subsequently serially diluted 2× and cell suspension is added to each well resulting in an additional 2× dilution of compound. 75 μl of said solution is delivered to each well in column 1 of a 96-well, U-bottomed plate. The compounds in column 1 were then serially diluted two-fold to yield concentrations from 128 μg/ml to 0.03 μg/ml.
(§3) The plates containing the diluted compounds were then inoculated with 75 μl/well of the appropriate microorganism and incubated for 48 hours at 35°-37° C. with MIC (minimum inhibitory concentration) determinations carried out after 24 hours of incubation (except Cryptococcus strains which are read at 48 hours). Growth and sterility controls for each organism and sterility checks for the compounds also were carried out.
(§4) No MFC values are indicated for Aspergillus fumigatus since colony counts are unreliable with filamentous species. Instead, a Minimum Effective Concentration (MEC) is reported. The MEC is defined as the lowest concentration of drug which effects a severe morphological change in the cells. The MEC is scored macroscopically by direct observation of the plate wells after 24 hours and reflects microscopic alterations in cell morphology (Kurtz et al, AAC 1994 38:1480-1489).

[3] = system: Aspergillus fumigatus (MY5668); experiment: broth microdilution assay (MIC/MEC); format: cell-based; settings: 24 hours
Protocol: as §1, §2, §3, §4

[4] = system: panel of fungi; experiment: broth microdilution assay, comparison with amphotericin B; format: cell-based; settings: MIC and MFC
Protocol: as §1, with “inocula. […]” for “inocula.”
The plates containing the diluted compounds were then inoculated with 75 μl/well of the appropriate microorganism and incubated for 48 hours at 35°-37° C. with MIC (minimum inhibitory concentration) determinations carried out after 24 hours of incubation (except Cryptococcus strains which are read at 48 hours). […]
After recording MICs at 24 hours, the microtiter plates were shaken gently to resuspend the cells. […] For Cryptococcus neoformans, SDA plates were inoculated at 48 hours after recording MICs and incubated 48 hours before reading the MFC. […]

[5] = system: Aspergillus flavus, Fusarium oxysporum, Ustilago zeae and the like; experiment: agar plate inhibition zone test against filamentous fungi; format: cell-based; settings: agar plates, methanol solutions, 28° C. or 37° C., 24 hours
Protocol: The compound is also useful for inhibiting the growth of filamentous fungi. Such use may be illustrated in the following tests with Aspergillus flavus, Fusarium oxysporum, Ustilago zeae and the like. Inocula for filamentous fungi are prepared by scraping the surface of stock plates maintained on potato dextrose agar with a moistened sterile dacron swab. The spores and mycelia are then suspended in 10 milliliters of sterile potato dextrose broth and adjusted to 70 percent transmission at 660 nm. The samples to be tested for production of antifungal agent are applied directly to the agar plates as methanol solutions. When the sample to be tested is crude broth, it may be centrifuged prior to application. The assay plates are then incubated at either 28° C. or 37° C. for 24 hours. Following incubation, the inhibition zones are measured. Effects on growth are also noted as to appearance.

[6] = system: Candida albicans (CA2); experiment: broth microdilution assay (MIC/MFC); format: cell-based; settings: 24 hours, 35°-37° C.
Protocol: as §1, §2, §3
(§5) After recording MICs at 24 hours, the microtiter plates were shaken gently to resuspend the cells. A 1.5 μl sample was transferred from each well of the 96-well plate to a single reservoir inoculum plate containing SDA. The inoculated SDA and corresponding microtiter plates were incubated for 24 hours at 35°-37° C. For Cryptococcus neoformans, SDA plates were inoculated at 48 hours after recording MICs and incubated 48 hours before reading the MFC. MFC is the lowest concentration of compound at which either no growth or growth of <4 colonies occur.

[7] = system: Candida albicans (CLY539); experiment: broth microdilution assay (MIC/MFC); format: cell-based; settings: 24 hours, 35°-37° C.
Protocol: as §1, §2, §3, §5

[8] = system: Cryptococcus neoformans (MY2061); experiment: broth microdilution assay (MIC/MFC); format: cell-based
Protocol: as §1, §2, §3, §5

[9] = system: Cryptococcus neoformans (MY2062); experiment: broth microdilution assay (MIC/MFC); format: cell-based
Protocol: as §1, §2, §3, §5

[10] = system: Saccharomyces cerevisiae (MY2140); experiment: broth microdilution assay (MIC/MFC); format: cell-based; settings: 24 hours, 35°-37° C.
Protocol: as §1, §2, §3, §5

[11] = system: Candida tropicalis (MY1012); experiment: broth microdilution assay (MIC/MFC); format: cell-based; settings: 24 hours, 35°-37° C.
Protocol: as §1, §2, §3, §5

[12] = system: Candida krusei; experiment: broth microdilution assay (MIC/MFC); format: cell-based; settings: Pichia kudriavzevii, 24 hours, 35°-37° C.
Protocol: as §1, §2, §3, §5

[13] = system: Candida glabrata (MY1381); experiment: broth microdilution assay (MIC/MFC); format: cell-based; settings: Nakaseomyces glabratus, 24 hours, 35°-37° C.
Protocol: as §1, §2, §3, §5

[14] = system: Candida tropicalis (MY1124); experiment: broth microdilution assay (MIC/MFC); format: cell-based; settings: 24 hours, 35°-37° C.
Protocol: as §1, §2, §3, §5

[15] = system: Candida pseudotropicalis (MY2099); experiment: broth microdilution assay (MIC/MFC); format: cell-based; settings: Kluyveromyces marxianus, 24 hours, 35°-37° C.
Protocol: as §1, §2, §3, §5

[16] = system: Candida parapsilosis (MY1010); experiment: broth microdilution assay (MIC/MFC); format: cell-based; settings: Lodderomyces parapsilosis, 24 hours, 35°-37° C.
Protocol: as §1, §2, §3, §5

[17] = system: Candida albicans (MY1055); experiment: broth microdilution assay (MIC/MFC); format: cell-based; settings: 24 hours, 35°-37° C.
Protocol: as §1, §2, §3, §5

[18] = system: Candida guillermondii (MY1019); experiment: broth microdilution assay (MIC/MFC); format: cell-based; settings: 24 hours, 35°-37° C.
Protocol: as §1, §2, §3, §5

[19] = 35°-37° C., read-out: MIC (minimum inhibitory concentration)
[20] = lowest concentration effecting severe morphological change, read-out: MEC (Minimum Effective Concentration)
[21] = read-out: MIC (minimum inhibitory concentration)
[22] = SDA, no growth or <4 colonies, read-out: MFC (minimum fungicidal concentration)
[23] = SDA inoculated at 48 hours, incubated 48 hours, no growth or <4 colonies, read-out: MFC (minimum fungicidal concentration)
[24] = read at 48 hours, 35°-37° C., read-out: MIC (minimum inhibitory concentration)

CC(=O)OC1CC23C4=CCC5(C)C(C(=O)O)C(C)(C(C)C(C)C)CCC5(C)C4CCC2C(C)(COC3O)C1OC1OC(CO)C(O)C(O)C1O (stereo not drawn) [Compound I]
reequilibration of separated diastereomers [1]: reequilibrate at normal temperatures
MIC [2, 19]: 64 µg/mL (≈ 90.3 µM)
minimal effective concentration [2, 20]: 0.031 µg/mL
MIC [3, 19]: 32 µg/mL (≈ 45.1 µM)
minimal effective concentration [3, 20]: 0.031 µg/mL
effectiveness against a panel of fungi, compared with amphotericin B [4]: at concentrations comparable to an established antifungal agent, amphotericin B
inhibition of growth of filamentous fungi [5]: effectively inhibit growth of the fungal organisms
MIC [6, 21]: > 128 µg/mL
MFC [6, 22]: > 128 µg/mL
MIC [7, 21]: 0.5 µg/mL (≈ 0.705 µM)
MFC [7, 22]: 0.5 µg/mL (≈ 0.705 µM)
MFC [8, 23]: 32 µg/mL (≈ 45.1 µM)
MIC [8, 24]: 32 µg/mL (≈ 45.1 µM)
MFC [9, 23]: 128 µg/mL (≈ 181 µM)
MIC [9, 24]: 32 µg/mL (≈ 45.1 µM)
MIC [10, 21]: 2 µg/mL (≈ 2.82 µM)
MFC [10, 22]: 2 µg/mL (≈ 2.82 µM)
MIC [11, 21]: 1 µg/mL (≈ 1.41 µM)
MFC [11, 22]: 1 µg/mL (≈ 1.41 µM)
MIC [12, 21]: 4 µg/mL (≈ 5.64 µM)
MFC [12, 22]: 1 µg/mL (≈ 1.41 µM)
MIC [13, 21]: 1 µg/mL (≈ 1.41 µM)
MFC [13, 22]: 0.5 µg/mL (≈ 0.705 µM)
MIC [14, 21]: 16 µg/mL (≈ 22.6 µM)
MFC [14, 22]: 16 µg/mL (≈ 22.6 µM)
MIC [15, 21]: 0.5 µg/mL (≈ 0.705 µM)
MFC [15, 22]: 1 µg/mL (≈ 1.41 µM)
MIC [16, 21]: 0.25 µg/mL (≈ 0.353 µM)
MFC [16, 22]: 0.25 µg/mL (≈ 0.353 µM)
MIC [17, 21]: 0.5 µg/mL (≈ 0.705 µM)
MFC [17, 22]: 0.25 µg/mL (≈ 0.353 µM)
MIC [18, 21]: 1 µg/mL (≈ 1.41 µM)
MFC [18, 22]: 2 µg/mL (≈ 2.82 µM)
